The test system of one assay is isolated mice. In words: Isolation-induced fighting in mice. In kind it is in vivo. The conditions noted are these: Mus musculus. The method, then: Male CD-1 mice (15-20 g) were utilized in this experiment. The test compound (15, 22 and 30 mg/kg) was dissolved in physiological saline (0.9%) and administered orally (PO) in a volume of 1 mL/100 g body weight.
Mice were isolated for up to 8 weeks in individual solid walled wire cages (24×20×17 cm). The animals were not disturbed except to replenish food. Aggression was tested by placing an intruder mouse into the home cage of the resident animal. Aggression was characterized by an attack on the “intruder” during a three minute period. […] Only those resident mice displaying fighting behavior were selected. […] ED50 values were calculated from the percent inhibition of fighting in computer program based on probit analysis.

The test system of the next assay is mice. In words: Forced swimming test in mice. In kind it is in vivo. The conditions noted are these: for ED50: Mus musculus.

Read-outs that look alike come from different tables or passages of the source.

Usually inhibition stands for the percentage by which the read-out fell short of the control. A high value points to a strong effect.

Compound `NC(=O)OC[C@H](N)Cc1ccccc1` [test compound, O-carbamoyl-(D)-phenylalaninol] returned an inhibition at 15 mg/kg in the assay on isolated mice (1 h, 15 mg/kg PO, 60 min after dosing) of 28%. The same compound had an inhibition at 22 mg/kg in the assay on isolated mice (1 h, 22 mg/kg PO, 60 min after dosing) of 44%. Moreover, in the assay with isolated mice (1 h, 30 mg/kg PO, 60 min after dosing), the inhibition at 30 mg/kg came out at 56%. The ED50 with isolated mice (PO, inhibition of isolation-induced fighting, probit analysis, read-out: ED50 (mg/kg, PO) (confidence limits)) was found to be 25.9 mg/kg; in the assay on mice (multiple dosing PO (twice a day for 3 days plus a dose on Day 4), read-out: ED50 (reduction of mean immobility time)) it was 5.5 mg/kg; in the assay on mice (read-out: ED50 (50% reduction in mean immobility time), single dose PO, 1 hour post-treatment), 16.6 mg/kg. In addition, the “mean duration of immobility” value in the assay with mice (multiple dosing 3 mg/kg PO, control 85 sec) turned out to be 63 s; with mice (multiple dosing 5 mg/kg PO, control 136 sec, significant), 73 s; in the assay on mice (multiple dosing 8 mg/kg PO, control 114 sec, significant) it was 39 s; with mice (single dose 10 mg/kg PO, control 131 sec), 101 s; in the assay with mice (single dose 15 mg/kg PO, control 154 sec, significant), 80 s; with mice (single dose 30 mg/kg PO, control 132 sec, significant), 30 s.

For the origin of these results see patent publication US9610274B2, “Methods for treating bipolar disorder” (priority 2010, dated 2017).
